Assay results taken from patent publication US20090221829A1 (priority 2005, published 2009).

test system: Candida albicans(KCTC 1940), Aspergillus niger (ATCC 9642) and Saccharomyces cerevisiae; assay: Relative antifungal activity by agar dilution method (vs Miconazole); format: cell-based; settings: agar dilution method; fungicidal concentration relative to control drug Miconazole (=4);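 further: scores 5 to 7 mean a lower fungicidal concentration than Miconazole so higher is more potent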
Text: Novel compounds represented by the above chemical formula (I), and the relative activities in accordance with the agar dilution method in Sabouraud dextrose agar media, Czapek agar media and Yeast Extract-Peptone-Dextrose agar media for Candida albicans(KCTC 1940), Aspergillus niger (ATCC 9642) and Saccharomyces cerevisiae are described respectively in following Table 1.

SMILES	Relative Activity
COc1cc2c(cc1OC)CC[N+](Cc1ccccc1F)=C2.[Cl-] [Compound No. 1, 2-(2-fluorophenyl)methyl-3,4-dihydro-6,7-dimethoxy-isoquinolinium chloride]	6
COc1cc2c(cc1OC)C(C)=[N+](Cc1ccccc1F)CC2.[Cl-] [Compound No. 2, 1-methyl-2-(2-fluorophenyl)methyl-3,4-dihydro-6,7-dimethoxy-isoquinolinium chloride]	6
COc1cc2c(cc1OC)C(CCl)=[N+](Cc1ccccc1F)CC2.[Cl-] [Compound No. 3, 1-chloromethyl-2-(2-fluorophenyl)methyl-3,4-dihydro-6,7-dimethoxy-isoquinolinium chloride]	6
CCC1=[N+](Cc2ccccc2F)CCc2cc(OC)c(OC)cc21.[Cl-] [Compound No. 4, 1-ethyl-2-(2-fluorophenyl)methyl-3,4-dihydro-6,7-dimethoxy-isoquinolinium chloride]	6
CCCC1=[N+](Cc2ccccc2F)CCc2cc(OC)c(OC)cc21.[Cl-] [Compound No. 5, 1-propyl-2-(2-fluorophenyl)methyl-3,4-dihydro-6,7-dimethoxyisoquinolinium chloride]	5
COc1cc2c(cc1OC)C(C(C)C)=[N+](Cc1ccccc1F)CC2.[Cl-] [Compound No. 6, 1-i-propyl-2-(2-fluorophenyl)methyl-3,4-dihydro-6,7-dimethoxyisoquinolinium chloride]	5
COc1cc2c(cc1OC)C(CCCCl)=[N+](Cc1ccccc1F)CC2.[Cl-] [Compound No. 7, 1-(3-chloropropyl)-2-(2-fluorophenyl)methyl-3,4-dihydro-6,7-dimethoxyisoquinolinium chloride]	5
COc1cc2c(cc1OC)C(CC(C)C)=[N+](Cc1ccccc1F)CC2.[Cl-] [Compound No. 8, 1-(2-methyl)propyl-2-(2-fluorophenyl)methyl-3,4-dihydro-6,7-dimethoxyisoquinolinium chloride]	5
CCCCCC1=[N+](Cc2ccccc2F)CCc2cc(OC)c(OC)cc21.[Cl-] [Compound No. 9, 1-n-pentyl-2-(2-fluorophenyl)methyl-3,4-dihydro-6,7-dimethoxyisoquinolinium chloride]	4
CCCCCCC1=[N+](Cc2ccccc2F)CCc2cc(OC)c(OC)cc21.[Cl-] [Compound No. 10, 1-n-hexyl-2-(2-fluorophenyl)methyl-3,4-dihydro-6,7-dimethoxyisoquinolinium chloride]	4
CCCCCCCCCCCCCCCC1=[N+](Cc2ccccc2F)CCc2cc(OC)c(OC)cc21.[Cl-] [Compound No. 13, 1-n-pentadecyl-2-(2-fluorophenyl)methyl-3,4-dihydro-6,7-dimethoxyisoquinolinium chloride]	2
COc1cc2c(cc1OC)C(c1ccccc1F)=[N+](Cc1ccccc1F)CC2.[Cl-] [Compound No. 14, 1-(2-fluorophenyl)-2-(2-fluorophenyl)methyl-3,4-dihydro-6,7-dimethoxyisoquinolinium chloride]	6
COc1cc2c(cc1OC)C(c1cccc(F)c1F)=[N+](Cc1ccccc1F)CC2.[Cl-] [Compound No. 15, 1-(2,3-difluorophenyl)-2-(2-fluorophenyl)methyl-3,4-dihydro-6,7-dimethoxyisoquinolinium chloride]	6
COc1cc2c(cc1OC)C(c1ccc(F)cc1F)=[N+](Cc1ccccc1F)CC2.[Cl-] [Compound No. 16, 1-(2,4-difluorophenyl)-2-(2-fluorophenyl)methyl-3,4-dihydro-6,7-dimethoxyisoquinolinium chloride]	6
COc1cc2c(cc1OC)C(c1ccc(F)c(F)c1)=[N+](Cc1ccccc1F)CC2.[Cl-] [Compound No. 17, 1-(3,4-difluorophenyl)-2-(2-fluorophenyl)methyl-3,4-dihydro-6,7-dimethoxyisoquinolinium chloride]	6
COc1cc2c(cc1OC)C(c1cccc(Cl)c1)=[N+](Cc1ccccc1F)CC2.[Cl-] [Compound No. 19, 1-(3-chlorophenyl)-2-(2-fluorophenyl)methyl-3,4-dihydro-6,7-dimethoxyisoquinolinium chloride]	6
COc1cc2c(cc1OC)C(c1ccc(Cl)cc1)=[N+](Cc1ccccc1F)CC2.[Cl-] [Compound No. 20, 1-(4-chlorophenyl)-2-(2-fluorophenyl)methyl-3,4-dihydro-6,7-dimethoxyisoquinolinium chloride]	6

SMILES	Relative Activity
CCCCc1ccc(C2=[N+](Cc3ccccc3F)CCc3cc(OC)c(OC)cc32)cc1.[Cl-] [Compound No. 21, 1-(4-n-butylphenyl)-2-(2-fluorophenyl)methyl-3,4-dihydro-6,7-dimethoxyisoquinolinium chloride]	6
COc1cc2c(cc1OC)C(c1cccc(C(F)(F)F)c1)=[N+](Cc1ccccc1F)CC2.[Cl-] [Compound No. 23, 1-(3-trifluoromethylphenyl)-2-(2-fluorophenyl) methyl-3,4-dihydro-6,7-dimethoxyisoquinolinium chloride]	6
COc1cc2c(cc1OC)C(Cc1ccccc1F)=[N+](Cc1ccccc1F)CC2.[Cl-] [Compound No. 24, 1-(2-fluorophenyl)methyl-2-(2-fluorophenyl)methyl-3,4-dihydro-6,7-dimethoxyisoquinolinium chloride]	6
COc1cc2c(cc1OC)C(C)=[N+](Cc1ccc(C(F)(F)F)cc1)CC2.[Cl-] [Compound No. 26, 1-methyl-2-(4-trifluoromethylphenyl)methyl-3,4-dihydro-6,7-dimethoxyisoquinolinium chloride]	6
CCCCCC1=[N+](Cc2ccc(C(F)(F)F)cc2)CCc2cc(OC)c(OC)cc21.[Cl-] [Compound No. 27, 1-n-pentyl-2-(4-trifluoromethylphenyl)methyl-3,4-dihydro-6,7-dimethoxyisoquinolinium chloride]	4
CCCCCCCC1=[N+](Cc2ccc(C(F)(F)F)cc2)CCc2cc(OC)c(OC)cc21.[Cl-] [Compound No. 28, 1-n-heptyl-2-(4-trifluoromethylphenyl)methyl-3,4-dihydro-6,7-dimethoxyisoquinolinium chloride]	4
CCCCCCCCCCCC1=[N+](Cc2ccc(C(F)(F)F)cc2)CCc2cc(OC)c(OC)cc21.[Cl-] [Compound No. 29, 1-n-undecyl-2-(4-trifluoromethylphenyl)methyl-3,4-dihydro-6,7-dimethoxyisoquinolinium chloride]	1
CCCCCCCCCCCCCCCC1=[N+](Cc2ccc(C(F)(F)F)cc2)CCc2cc(OC)c(OC)cc21.[Cl-] [Compound No. 30, 1-n-pentadecyl-2-(4-trifluoromethylphenyl)methyl-3,4-dihydro-6,7-dimethoxyisoquinolinium chloride]	1
COc1cc2c(cc1OC)C(c1ccccc1F)=[N+](Cc1ccc(C(F)(F)F)cc1)CC2.[Cl-] [Compound No. 31, 1-(2-fluorophenyl)-2-(4-trifluoromethylphenyl)methyl-3,4-dihydro-6,7-dimethoxyisoquinolinium chloride]	6
COc1cc2c(cc1OC)C(c1ccc(C(C)(C)C)cc1)=[N+](Cc1ccc(C(F)(F)F)cc1)CC2.[Cl-] [Compound No. 32, 1-(4-t-butylphenyl)-2-(4-trifluoromethylphenyl)methyl-3,4-dihydro-6,7-dimethoxyisoquinolinium chloride]	6
COc1ccc(C[N+]2=C(C)c3cc(OC)c(OC)cc3CC2)cc1.[Cl-] [Compound No. 33, 1-methyl-2-(4-methoxyphenyl)methyl-3,4-dihydro-6,7-dimethoxyisoquinolinium chloride]	6
CCCCCC1=[N+](Cc2ccc(OC)cc2)CCc2cc(OC)c(OC)cc21.[Cl-] [Compound No. 34, 1-n-pentyl-2-(4-methoxyphenyl)methyl-3,4-dihydro-6,7-dimethoxyisoquinolinium chloride]	4
CCCCCCC1=[N+](Cc2ccc(OC)cc2)CCc2cc(OC)c(OC)cc21.[Cl-] [Compound No. 35, 1-n-hexyl-2-(4-methoxyphenyl)methyl-3,4-dihydro-6,7-dimethoxyisoquinolinium chloride]	4
CCCCCCCC1=[N+](Cc2ccc(OC)cc2)CCc2cc(OC)c(OC)cc21.[Cl-] [Compound No. 36, 1-n-heptyl-2-(4-methoxyphenyl)methyl-3,4-dihydro-6,7-dimethoxyisoquinolinium chloride]	3
CCCCCCCCCCCC1=[N+](Cc2ccc(OC)cc2)CCc2cc(OC)c(OC)cc21.[Cl-] [Compound No. 37, 1-n-undecyl-2-(4-methoxyphenyl)methyl-3,4-dihydro-6,7-dimethoxyisoquinolinium chloride]	2
CCCCCCCCCCCCCCCC1=[N+](Cc2ccc(F)cc2)CCc2cc(OC)c(OC)cc21.[Cl-] [Compound No. 38, 1-n-pentadecyl-2-(4-fluorophenyl)methyl-3,4-dihydro-6,7-dimethoxyisoquinolinium chloride]	1
COc1cc2c(cc1OC)C(C(C)C)=[N+](Cc1ccc(F)c(F)c1)CC2.[Cl-] [Compound No. 40, 1-i-propyl-2-(3,4-difluorophenyl)methyl-3,4-dihydro-6,7-dimethoxyisoquinolinium chloride]	6
